A word on the IC50: it is the concentration needed to halve the response being measured.

The text below walks through data of BindingDB's records for doi:10.1016/j.ejmech.2015.08.002 (Ochanomizu University, 2015).

The target of the experiment is Androgen receptor (Mus musculus) (UniProt P19091). Kind of experiment: Antagonist activity at wild type AR expressed in mouse SC-3 cells assessed as inhibition of 1 nM DHT-induced cell proliferation after 3 days by WST-8 assay. (Tetrazolium dyes change colour on reduction, which living cells bring about.)
Chain of Androgen receptor (Mus musculus) (P19091 whole entry, looked up): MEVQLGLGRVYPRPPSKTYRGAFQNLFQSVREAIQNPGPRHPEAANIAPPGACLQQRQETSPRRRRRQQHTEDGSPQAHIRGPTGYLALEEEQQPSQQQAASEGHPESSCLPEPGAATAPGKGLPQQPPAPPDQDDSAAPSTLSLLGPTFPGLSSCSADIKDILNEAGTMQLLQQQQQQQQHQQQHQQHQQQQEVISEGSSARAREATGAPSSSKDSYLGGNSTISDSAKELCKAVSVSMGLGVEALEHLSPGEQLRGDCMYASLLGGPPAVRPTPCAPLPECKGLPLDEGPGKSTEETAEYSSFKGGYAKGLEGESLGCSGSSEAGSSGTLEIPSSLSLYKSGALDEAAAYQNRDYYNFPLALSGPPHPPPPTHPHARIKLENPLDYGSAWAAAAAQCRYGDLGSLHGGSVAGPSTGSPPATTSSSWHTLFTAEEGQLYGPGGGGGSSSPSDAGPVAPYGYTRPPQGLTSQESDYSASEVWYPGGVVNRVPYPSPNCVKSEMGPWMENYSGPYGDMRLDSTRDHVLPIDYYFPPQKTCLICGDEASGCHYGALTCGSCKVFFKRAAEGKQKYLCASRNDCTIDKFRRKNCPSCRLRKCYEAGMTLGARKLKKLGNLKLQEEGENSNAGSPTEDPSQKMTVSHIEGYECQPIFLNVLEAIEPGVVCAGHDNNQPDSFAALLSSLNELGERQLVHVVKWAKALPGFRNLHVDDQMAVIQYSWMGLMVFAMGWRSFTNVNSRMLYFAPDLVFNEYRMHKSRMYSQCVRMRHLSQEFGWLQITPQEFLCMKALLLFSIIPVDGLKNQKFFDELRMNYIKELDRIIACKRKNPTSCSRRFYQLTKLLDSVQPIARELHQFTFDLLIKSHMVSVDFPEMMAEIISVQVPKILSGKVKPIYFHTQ

With `CCN(CC)c1ccccc1Cc1n[nH]c(=O)c2ccccc12`, the concentration for half-maximal inhibition (IC50) was 1660 nM.
For the compound `Nc1ccccc1Cc1n[nH]c(=O)c2ccccc12`, the 50% inhibitory concentration (IC50) is 220 nM.
Regarding `O=c1[nH]nc(Cc2ccccc2C(F)(F)F)c2ccccc12`, the IC50 is 3670 nM.
For the compound `COc1ccccc1Cc1n[nH]c(=O)c2ccccc12`, the half-inhibitory concentration (IC50) stood at 9590 nM.
Turning to `O=c1[nH]nc(Cc2ccccc2F)c2ccccc12`, the half-inhibitory concentration (IC50) came to 10500 nM.
For the compound `CNc1ccccc1Cc1n[nH]c(=O)c2ccccc12`, the 50% inhibitory concentration (IC50) worked out at 9020 nM.
As to `O=C(Nc1ccccc1Cc1n[nH]c(=O)c2ccccc12)C(F)(F)F`, the IC50 stood at 1010 nM.
Turning to `O=c1[nH]nc(Cc2c(Cl)ccc(Cl)c2Cl)c2ccccc12`, the concentration for half-maximal inhibition (IC50) was determined as 920 nM.
For `Cc1ccccc1Cc1n[nH]c(=O)c2ccccc12`, the concentration for half-maximal inhibition (IC50) came to 9540 nM.
Then `O=c1[nH]nc(Cc2c(F)cccc2F)c2ccccc12`, with 3760 nM.
Regarding `CN(C)c1ccccc1Cc1n[nH]c(=O)c2ccccc12`, the half-maximal inhibitory concentration (IC50) stood at 1950 nM.
Then `O=c1[nH]nc(Cc2ccccc2)c2ccccc12`, with 5370 nM; and `O=c1[nH]nc(Cc2c(Cl)cccc2Cl)c2ccccc12`, with 180 nM; and `Cc1cccc(C)c1Cc1n[nH]c(=O)c2ccccc12`, with 1380 nM.
On to `O=c1[nH]nc(Cc2ccccc2Cl)c2ccccc12` [4-(2-chlorobenzyl)phthalazin-1(2H)-one], for which the IC50 came out at 1260 nM.
In the case of `CCNc1ccccc1Cc1n[nH]c(=O)c2ccccc12`, the concentration for half-maximal inhibition (IC50) turned out to be 3710 nM.
For `O=c1[nH]nc(Cc2ccccc2[N+](=O)[O-])c2ccccc12`, the IC50 is 530 nM.
